# Measurements as given in the supplement of paper PMC10307832.
# How the values were obtained:
# Experiment in all cases: relative viability (nuclei count vs DMSO), 5 days (fraction); higher = more cells survive
# [1] = compound: C1CN(CCC1C(C2=CC3=C(C=C2)OCO3)(C4=CC5=C(C=C4)OCO5)O)C(=O)OC6=CC=C(C=C6)[N+](=O)[O-] [JZL-184] + CC1(C)CCC(c2ccc(Cl)cc2)=C(CN2CCN(c3ccc(C(=O)NS(=O)(=O)c4ccc(N[C@H](CCN5CCOCC5)CSc5ccccc5)c(S(=O)(=O)C(F)(F)F)c4)cc3)CC2)C1 [Navitoclax] (partner 0.5 µM)
# Summary of the method: (§1)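 Relative viability equals treated-well nuclei counts divided by vehicle-well nuclei counts. Counts came from 4× images of lung cancer cell lines grown in 1536-well plates for 5 days after pin-tool dosing on the day after seeding. Dosing used one drug alone or a fixed anchor-drug dose plus five library-drug doses (not always all listed) in √10 steps, and values are medians of duplicate plates.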
# [2] = compound: C1CN(CCC1C(C2=CC3=C(C=C2)OCO3)(C4=CC5=C(C=C4)OCO5)O)C(=O)OC6=CC=C(C=C6)[N+](=O)[O-] [JZL-184] + Cc1nc(Nc2ncc(C(=O)Nc3c(C)cccc3Cl)s2)cc(N2CCN(CCO)CC2)n1 [Dasatinib] (partner 0.075 µM)
# Summary of the method: as §1
# [3] = compound: C1CN(CCC1C(C2=CC3=C(C=C2)OCO3)(C4=CC5=C(C=C4)OCO5)O)C(=O)OC6=CC=C(C=C6)[N+](=O)[O-] [JZL-184] + COc1cc2c(Oc3ccc(NC(=O)C4(C(=O)Nc5ccc(F)cc5)CC4)cc3F)ccnc2cc1OCCCN1CCOCC1 [Foretinib] (partner 0.25 µM)
# Summary of the method: as §1
# [4] = compound: C1CN(CCC1C(C2=CC3=C(C=C2)OCO3)(C4=CC5=C(C=C4)OCO5)O)C(=O)OC6=CC=C(C=C6)[N+](=O)[O-] [JZL-184] + CC(=O)Nc1cccc(-n2c(=O)n(C3CC3)c(=O)c3c(Nc4ccc(I)cc4F)n(C)c(=O)c(C)c32)c1 [Trametinib] (partner 0.02 µM)
# Summary of the method: as §1
# [5] = compound: C1CN(CCC1C(C2=CC3=C(C=C2)OCO3)(C4=CC5=C(C=C4)OCO5)O)C(=O)OC6=CC=C(C=C6)[N+](=O)[O-] [JZL-184] + CS(=O)(=O)CCNCc1ccc(-c2ccc3ncnc(Nc4ccc(OCc5cccc(F)c5)c(Cl)c4)c3c2)o1 [Lapatinib] (partner 2 µM)
# Summary of the method: as §1
Cell Line,relative viability ([1]; first compound 0.04 µM),relative viability ([1]; first compound 1.265 µM),relative viability ([1]; first compound 4 µM),relative viability ([2]; first compound 0.04 µM),relative viability ([2]; first compound 0.4 µM),relative viability ([2]; first compound 1.265 µM),relative viability ([2]; first compound 4 µM),relative viability ([3]; first compound 0.04 µM),relative viability ([3]; first compound 0.4 µM),relative viability ([3]; first compound 1.265 µM),relative viability ([3]; first compound 4 µM),relative viability ([4]; first compound 0.04 µM),relative viability ([4]; first compound 0.4 µM),relative viability ([4]; first compound 1.265 µM),relative viability ([4]; first compound 4 µM),relative viability ([5]; first compound 0.04 µM),relative viability ([5]; first compound 1.265 µM),relative viability ([5]; first compound 4 µM),relative viability ([1]; first compound 0.4 µM),relative viability ([5]; first compound 0.4 µM)
LCLC-97TM1,0.362,0.663,0.269,0.903,0.778,0.911,0.763,1.01,0.981,0.979,0.867,0.215,0.182,0.222,0.206,1.08,1.01,0.858,–,–
LK-2,0.941,1.06,0.77,0.379,0.364,0.295,0.325,1.27,1.11,1.31,1.5,0.903,0.736,0.856,0.721,1.24,1.04,0.972,0.821,0.878
LOU-NH91,0.763,0.886,0.718,0.612,0.544,0.605,0.567,1.02,0.9,1.03,0.939,0.793,0.754,0.848,0.754,0.783,0.845,0.727,0.71,0.741
LU99A,0.714,0.804,0.463,0.717,0.443,0.525,0.541,0.801,0.726,0.873,0.767,0.574,0.469,0.607,0.638,1.21,1.22,0.963,0.588,0.966
LXF-289,0.973,0.91,0.928,0.173,0.281,0.207,0.307,1.05,0.957,0.997,0.947,0.789,0.604,0.668,0.668,0.92,0.924,0.852,0.832,0.866
NCI-H23,1.01,0.837,0.777,0.896,0.81,0.864,0.751,0.913,1.01,1.15,1.01,0.409,–,0.358,0.392,1.39,1.26,1.07,0.63,0.969
NCI-H322M,1.18,1.32,1.31,0.252,0.265,0.264,0.252,1.12,0.932,1.03,0.791,0.456,0.48,0.513,0.482,0.654,0.562,0.578,1.26,0.599
NCI-H460,1.37,1.02,1.12,0.62,0.394,0.553,0.503,1.03,0.904,0.957,1.02,0.22,0.145,0.213,0.099,1.86,1.09,0.881,1.02,0.894
NCI-H520,1.19,1.15,1.04,0.188,0.2,0.178,0.168,0.893,0.784,0.831,0.771,0.729,0.63,0.686,0.651,0.79,0.856,0.631,1.13,0.76
NCI-H596,0.936,0.93,0.791,0.739,0.437,0.658,0.566,0.879,0.719,0.968,0.801,0.86,0.76,0.801,0.767,1.12,1.04,0.992,0.993,0.948
NCI-H647,1.24,1.12,1.07,0.177,0.174,0.283,0.145,1.19,1.2,1.27,1.24,0.455,0.41,0.562,0.504,1.35,1.28,1.14,1.12,0.969
NCI-H727,0.383,0.543,0.422,0.37,0.443,0.398,0.334,0.981,0.744,0.932,0.845,0.416,0.366,0.414,0.39,0.92,0.862,0.807,0.455,0.688
NCI-H838,1.39,1.21,1.11,0.286,0.307,0.289,0.3,1.04,1.04,1.14,0.901,0.65,0.569,0.543,0.477,1.19,1.16,0.94,1.22,1.04
NCI-H1355,0.848,1.08,0.861,0.723,0.662,0.783,0.672,1.06,0.936,1.01,0.929,0.44,0.403,0.423,0.38,0.974,1.02,0.943,0.925,0.921
NCI-H1395,1.49,1.18,1.02,0.424,0.435,0.414,0.404,0.918,0.972,0.965,0.856,1.09,0.996,1.01,0.875,0.997,0.91,0.995,1.22,0.953
NCI-H1437,1.1,0.965,1.06,0.414,0.304,0.434,0.405,1.27,1.16,1.31,1.21,0.495,0.482,0.479,0.445,0.984,0.773,0.759,0.959,0.717
NCI-H1650,1.64,1.39,1.06,0.306,0.297,0.388,0.296,1.22,1.03,1.35,0.898,0.778,0.403,0.801,0.657,0.821,0.939,0.718,1.08,0.735
NCI-H1651,1.07,1.07,1.12,0.407,0.376,0.487,0.42,0.798,0.786,0.725,0.788,0.848,0.872,0.787,0.848,0.833,0.888,0.798,0.99,0.715
NCI-H1666,1.02,1.16,1.02,0.842,0.861,0.764,0.783,1.07,0.895,0.942,1,0.888,0.828,0.856,0.839,0.647,0.585,0.633,0.825,0.65
NCI-H1734,0.991,0.901,0.843,0.503,0.425,0.442,0.453,0.982,0.743,0.957,0.771,0.721,0.611,0.72,0.606,1.22,1.15,1.04,0.799,0.959
NCI-H1755,1.01,1.01,0.918,0.445,0.428,0.406,0.396,0.989,0.917,0.933,0.919,0.748,0.747,0.802,0.77,1.02,1.07,0.962,0.954,1.01
NCI-H1793,0.351,0.502,0.38,0.511,0.36,0.41,0.369,0.63,0.84,0.865,0.583,0.433,0.481,0.455,0.438,0.853,0.812,0.422,0.426,0.492
NCI-H1915,0.819,0.794,0.722,0.318,0.298,0.364,0.281,1.15,1.01,1.18,1.07,0.301,0.293,0.328,0.297,1.15,0.998,0.935,0.749,0.973
NCI-H1944,0.948,1.08,1.02,0.256,0.208,0.221,0.213,0.893,0.906,0.938,0.886,0.438,0.385,0.452,0.417,0.805,0.875,0.846,1.08,0.803
NCI-H1975,1.3,1.2,1.05,0.427,0.356,0.347,0.31,1.02,0.94,0.987,0.87,0.314,0.33,0.349,0.33,1.08,1.02,0.888,0.967,0.824
NCI-H1993,0.906,1.06,1.03,0.498,0.617,0.709,0.674,0.769,0.669,0.758,0.816,0.496,0.51,0.517,0.559,0.767,0.827,0.885,0.884,0.807
NCI-H2009,1.18,1.17,1.17,0.354,0.28,0.333,0.239,1.17,0.809,1.28,1.21,0.228,0.276,0.329,0.301,1.15,0.928,1.01,0.951,0.805
